One block for each compound: values may come before it. Peptide text beside a SMILES is read from it.
Columns and labels:
[1] = target: Tubulin; test: Binding affinity to microtubules (unknown origin) assessed as dissociation constant; type: protein-complex assay, Homo sapiens
[2] = target: T1, Tubulin (Homo sapiens) (UniProt P68371+Q9H4B7+P0DPH7+P68366+Q13509+Q71U36+P04350+Q3ZCM7+P07437+P68363+Q9BQE3+Q6PEY2+Q13885+Q9BVA1+Q9BUF5); test: Binding affinity to tubulin (unknown origin) assessed as binding constant by […] analysis; type: protein-complex assay
[3] = target: T1, Tubulin (Homo sapiens); test: Binding affinity to microtubules (unknown origin) assessed as binding constant by turbidity assay; type: protein-complex assay
[4] = target: T1, Tubulin (Homo sapiens); test: Binding affinity to tubulin (unknown origin) assessed as binding constant; type: protein-complex assay
[5] = Ratio of drug concentration in CSF to plasma in Sprague-Dawley rat at 15 mg/kg,IV measured after 1 hrs; type: ADME, organism-based; settings: CSF and plasma

Kb [3]: 2.65 10^4/M
Compound: CC(C)C[C@H](NC(=O)[C@H](Cc1ccccc1)NC(=O)[C@@H](NC(=O)[C@H](CCC(=O)O)NC(=O)[C@@H](N)CC(N)=O)C(C)C)C(=O)N[C@@H](CC(=O)O)C(=O)N[C@H](C(=O)N[C@@H](CCC(N)=O)C(=O)O)[C@@H](C)O (H-NEVFLDTQ-OH)

Kb [4]: 2.35 10^5/M
Compound: CC(C)C[C@H](NC(=O)[C@@H](N)CO)C(=O)N[C@@H](CCCCN)C(=O)N1CCC[C@H]1C(=O)N[C@@H](C)C(=O)N[C@@H](C)C(=O)N[C@@H](CC(N)=O)C(=O)N[C@@H](CC(C)C)C(=O)N1CCC[C@H]1C(=O)N[C@@H](CC(C)C)C(=O)N[C@@H](CCCNC(=N)N)C(=O)N[C@@H](Cc1ccccc1)C(=O)O (H-SLKPAANLPLRF-OH)

Kp at 1 h [5]: 0.138
Compound: CC[C@H](C)[C@H](NC(=O)[C@H](CO)NC(=O)[C@@H](NC(=O)[C@@H]1CCCN1C(=O)[C@H](C)NC(=O)[C@@H](N)CC(N)=O)C(C)C)C(=O)N1CCC[C@H]1C(=O)N[C@@H](CCC(N)=O)C(=O)O [DAVUNETIDE]

Further lines, the compound ahead of its results:

Compound: CC[C@H](C)[C@H](NC(=O)[C@H](CCC(N)=O)NC(=O)[C@@H](NC(=O)[C@H](CO)NC(=O)CNC(=O)CNC(=O)CNC(=O)[C@@H]1CCCN1C(=O)[C@@H](NC(=O)[C@H](Cc1c[nH]cn1)NC(=O)[C@H](CCCCN)NC(=O)[C@H](CCCCN)NC(=O)CNC(=O)CNC(=O)CNC(=O)[C@@H](N)CS)C(C)C)C(C)C)C(=O)N[C@H](C(=O)N[C@@H](Cc1ccc(O)cc1)C(=O)N[C@@H](CCCCN)C(=O)N1CCC[C@H]1C(=O)N[C@H](C(=O)N[C@@H](CC(=O)O)C(=O)N[C@@H](CC(C)C)C(=O)O)C(C)C)C(C)C
Kd [1]: 64.1 µM

Compound: CC[C@H](C)[C@H](NC(=O)[C@H](CO)NC(=O)[C@@H](NC(=O)[C@H](C)NC(=O)[C@@H](N)CC(N)=O)C(C)C)C(=O)N[C@@H](CCC(N)=O)C(=O)O (H-NAVSIQ-OH)
Activity [2]: 1.14 10^3/M
